In this assay the target is CDK-2 (Homo sapiens, UniProt P24941). In words: CDK-2 inhibition, fluorescence polarization displacement assay. (In general: In fluorescence polarisation assays a small probe gives low polarisation when free and higher when bound to something large.)

SMILES strings stand for the structures.

From patent publication EP1931657B1, “NOVEL HIGH AFFINITY QUINOLINE-BASED KINASE LIGANDS” (Merck Sharp & Dohme Corp., priority 2005, dated 2007) come the findings set out here.

In general, IC50 refers to the point on the concentration scale where inhibition reaches its midpoint. Low values mean greater potency in that assay, high ones weaker potency in that assay.

Protocol: Binding assays were performed in a 384 well Costar NBS coated plate. […] The concentration of BMS-Alexa Fluor647 was 50 nM. Serial dilutions of compounds were added to 12 wells. The final buffer concentration was 10 mM Hepes, pH 7.5, 150 mM NaCl, and 1 mM DTT. Samples were incubated at room temperature for 15 minutes and then read in an Analyst HT instrument using an excitation and emission wavelength of 580 and 680 nm, respectively.

Take `COC(=O)[C@H](Cc1ccc(O)cc1)NC(=O)c1cc(C(=O)O)c2cc(-c3ccccc3OC)ccc2n1` [Compound 151]: the IC50 lay in the range of 1 to 40 µM.

For the compound `COC[C@H](Cc1ccc(O)cc1)NC(=O)c1cc(C(=O)O)c2cc(C#CCCC#N)ccc2n1` [Compound 152], the IC50 was in the range of 1 to 40 µM.

As to `COC(=O)C(Cc1ccc(O)cc1)NC(=O)c1cc(C(=O)NC(C)(C)C(=O)O)c2cc(-c3cccs3)ccc2n1` (stereo not drawn) [Compound 154], the IC50 was > 40 µM.

In the case of `COC(=O)[C@H](Cc1c[nH]cn1)NC(=O)c1cc(C(=O)O)c2cc(-c3cccs3)ccc2n1` [Compound 156], the IC50 is > 40 µM.

Consider `COC(=O)[C@H](Cc1ccc(O)cc1)NC(=O)c1cc(C(=O)O)c2cc(-c3ccc(S(C)(=O)=O)cc3)ccc2n1` [Compound 157], for which the IC50 is > 40 µM.

`COC(=O)[C@H](Cc1ccc(O)cc1)NC(=O)c1cc(C(=O)O)c2cc(-c3cccc(NC(C)=O)c3)ccc2n1` [Compound 158]: the IC50 was > 40 µM.

As to `COC(=O)[C@H](Cc1ccc(O)cc1)NC(=O)c1cc(C(=O)O)c2cc(Cc3ccccc3)ccc2n1` [Compound 159], the IC50 is > 40 µM.

In the case of `COC(=O)[C@H](Cc1cccnc1)NC(=O)c1cc(C(=O)O)c2cc(-c3cccc(C(F)(F)F)c3)ccc2n1` [Compound 164], the IC50 was > 40 µM.

Consider `COC(=O)[C@H](Cc1ccc(OC(C)(C)C)cc1)NC(=O)c1cc(C(=O)O)c2cc(-c3cccc(C(F)(F)F)c3)ccc2n1` [Compound 166], for which the IC50 was > 40 µM.

Turning to `COC(=O)[C@H](Cc1ccc(OC)cc1)NC(=O)c1cc(S(C)(=O)=O)c2cc(-c3cccc(C(F)(F)F)c3)ccc2n1` [Compound 171], the IC50 is > 40 µM.

For `COC[C@H](Cc1ccc(O)cc1)NC(=O)c1cc(S(C)(=O)=O)c2cc(-c3cccc(C(F)(F)F)c3)ccc2n1` [Compound 172], the IC50 was > 40 µM.

As to `COC[C@H](Cc1ccc(O)cc1)NC(=O)c1cc(C(=O)OCCO)c2cc(-c3cccc(C(F)(F)F)c3)ccc2n1` [Compound 173], the concentration for half-maximal inhibition (IC50) was > 40 µM.

`COC[C@H](Cc1ccc(O)cc1)NC(=O)c1cc(C(=O)OCC(O)CO)c2cc(-c3cccc(C(F)(F)F)c3)ccc2n1` (stereo partly drawn) [Compound 174]: the IC50 is > 40 µM.

Turning to `CCCCOC(=O)c1cc(C(=O)N[C@H](COC)Cc2ccc(O)cc2)nc2ccc(-c3cccc(C(F)(F)F)c3)cc12` [Compound 177], the IC50 was > 40 µM.

Regarding `COC[C@H](Cc1ccc(O)cc1)NC(=O)c1cc(C(=O)O)c2cc(COc3ccccc3)ccc2n1` [Compound 180], the IC50 was > 40 µM.

For `NC[C@H](Cc1ccc(O)cc1)NC(=O)c1cc(C(=O)O)c2cc(CCc3ccccc3)ccc2n1` [Compound 181], the IC50 was > 40 µM.

`NCC[C@H](Cc1ccc(O)cc1)NC(=O)c1cc(C(=O)O)c2cc(CCc3ccccc3)ccc2n1` [Compound 182]: the IC50 is > 40 µM.

With `CCN(CC)Cc1cccc(-c2ccc3nc(C(=O)N[C@H](COC)Cc4ccc(O)cc4)cc(C(=O)O)c3c2)c1` [Compound 183], the IC50 was > 40 µM.

Turning to `COC[C@H](Cc1ccc(O)cc1)NC(=O)c1cc(C(=O)O)c2cc(C#CCN(C)C)ccc2n1` [Compound 185], the IC50 is > 40 µM.

In the case of `COC[C@H](Cc1ccc(O)cc1)NC(=O)c1cc(C(=O)O)c2cc(CCc3cccnc3)ccc2n1` [Compound 187], the IC50 was > 40 µM.

For the compound `COC[C@H](Cc1ccc(O)cc1)NC(=O)c1cc(C(=O)O)c2cc(/C=C/c3cccnc3)ccc2n1` [Compound 188], the IC50 was > 40 µM.

Turning to `COC[C@H](Cc1ccc(O)cc1)NC(=O)c1cc(C(=O)O)c2cc(-c3cccc(CN(C)C)c3)ccc2n1` [Compound 190], the IC50 was > 40 µM.

For the compound `COC[C@H](Cc1ccc(O)cc1)NC(=O)c1cc(C(=O)O)c2cc(-c3cccc(CN(C)CCO)c3)ccc2n1` [Compound 191], the IC50 was > 40 µM.

Consider `COC[C@H](Cc1ccc(O)cc1)NC(=O)c1cc(C(=O)O)c2cc(-c3cccc(CNC(CO)CO)c3)ccc2n1` [Compound 197], for which the IC50 is > 40 µM.

For `COC[C@H](Cc1ccc(O)cc1)NC(=O)c1cc(C(=O)O)c2cc(COc3ccc(OC)cc3)ccc2n1` [Compound 200], the IC50 is > 40 µM.

For the compound `COC[C@H](Cc1ccc(O)cc1)NC(=O)c1cc(C(=O)O)c2cc(COc3ccccc3OC)ccc2n1` [Compound 201], the IC50 was > 40 µM.

Regarding `COC[C@H](Cc1ccc(O)cc1)NC(=O)c1cc(C(=O)O)c2cc(COc3ccc(O)cc3)ccc2n1` [Compound 202], the IC50 was > 40 µM.

For the compound `COC[C@H](Cc1ccc(O)cc1)NC(=O)c1cc(C(=O)O)c2cc(C#CCCCCN)ccc2n1` [Compound 203], the IC50 was > 40 µM.

For `COC[C@H](Cc1ccc(O)cc1)NC(=O)c1cc(C(=O)O)c2cc(C#Cc3ccncc3)ccc2n1` [Compound 204], the IC50 was > 40 µM.

`COC[C@H](Cc1ccc(O)cc1)NC(=O)c1cc(C(=O)O)c2cc(C#CCN3CCS(=O)(=O)CC3)ccc2n1` [Compound 205]: the IC50 was > 40 µM.

On to `CCOC(=O)C#Cc1ccc2nc(C(=O)N[C@H](COC)Cc3ccc(O)cc3)cc(C(=O)O)c2c1` [Compound 206], for which the IC50 was > 40 µM.

`COC[C@H](Cc1ccc(O)cc1)NC(=O)c1cc(C(=O)O)c2cc(COc3ccccn3)ccc2n1` [Compound 207]: the IC50 was > 40 µM.

With `COC[C@H](Cc1ccc(O)cc1)NC(=O)c1cc(C(=O)O)c2cc(CSc3ccncc3)ccc2n1` [Compound 208], the IC50 was > 40 µM.

As for `COC[C@H](Cc1ccc(O)cc1)NC(=O)c1cc(C(=O)O)c2cc(CSc3ccccn3)ccc2n1` [Compound 210], the IC50 was > 40 µM.

For `COC[C@H](Cc1ccc(O)cc1)NC(=O)c1cc(C(=O)O)c2cc(CN(C)C)ccc2n1` [Compound 211], the IC50 is > 40 µM.

For the compound `COC[C@H](Cc1ccc(O)cc1)NC(=O)c1cc(-n2cccn2)c2cc(-c3cccc(Cn4cccn4)c3)ccc2n1` [Compound 213], the IC50 is > 40 µM.

With `COC[C@H](Cc1ccc(O)cc1)NC(=O)c1cc(C(=O)OCCO)c2cc(/C=C/c3ccc(Cl)cc3)ccc2n1` [Compound 214], the IC50 is > 40 µM.

`COC[C@H](Cc1ccc(O)cc1)NC(=O)c1cc(C(=O)OCC(O)CO)c2cc(/C=C/c3ccc(Cl)cc3)ccc2n1` (stereo partly drawn) [Compound 215]: the IC50 is > 40 µM.

In the case of `CCOC(=O)c1cc(C(=O)N[C@H](COC)Cc2ccc(O)cc2)nc2ccc(/C=C/c3ccc(Cl)cc3)cc12` [Compound 217], the IC50 was > 40 µM.

Consider `COC[C@H](Cc1ccc(O)cc1)NC(=O)c1cc(C(=O)OCCN(C)C)c2cc(/C=C/c3ccc(Cl)cc3)ccc2n1` [Compound 218], for which the IC50 was > 40 µM.

`COC[C@H](Cc1ccc(O)cc1)NC(=O)c1cc(C(=O)O)c2cc(C#CCCCCN3CCN(C)CC3)ccc2n1` [Compound 219]: the IC50 is > 40 µM.

In the case of `COC[C@H](Cc1ccc(O)cc1)NC(=O)c1cc(C(=O)O)c2cc(C#CCCCN3CCN(C)CC3)ccc2n1` [Compound 220], the IC50 is > 40 µM.

Regarding `CC(C)(C)S(=O)(=O)Nc1cc(C(=O)N[C@H](CN)Cc2ccc(O)cc2)nc2ccc(C#Cc3ccccn3)cc12` [Compound 225], the IC50 was > 40 µM.

Consider `COC(=O)[C@H](Cc1ccc(O)cc1)NC(=O)c1cc(C(=O)O)c2cc(-c3cncnc3)ccc2n1` [Compound 226], for which the IC50 was > 40 µM.

Take `COC(=O)[C@H](Cc1ccc(O)cc1)NC(=O)c1cc(C(N)=O)c2cc(-c3cccs3)ccc2n1` [Compound 227]: the IC50 was > 40 µM.

Regarding `COC(=O)[C@H](Cc1ccc(O)cc1)NC(=O)c1cc(C(=O)OCC(N)C(C)C)c2cc(-c3cccs3)ccc2n1` (stereo partly drawn) [Compound 228], the IC50 is > 40 µM.

In the case of `COC(=O)c1cc(C(=O)N[C@@H](Cc2ccc(O)cc2)C(=O)OC)nc2ccc(-c3cccs3)cc12` [Compound 229], the IC50 is > 40 µM.

Regarding `COC(=O)[C@H](Cc1ccc(O)cc1)NC(=O)c1cc(C(=O)OCCO)c2cc(-c3cccs3)ccc2n1` [Compound 230], the IC50 is > 40 µM.

For `CCCCOC(=O)c1cc(C(=O)N[C@@H](Cc2ccc(O)cc2)C(=O)OC)nc2ccc(-c3cccs3)cc12` [Compound 231], the IC50 is > 40 µM.

Turning to `COC(=O)[C@H](Cc1ccc(O)cc1)NC(=O)c1cc(C(=O)Nc2nnn[nH]2)c2cc(-c3cccs3)ccc2n1` [Compound 234], the IC50 is > 40 µM.

Take `COC(=O)C(Cc1ccc(O)cc1)NC(=O)c1cc(C(=O)NC(C)C)c2cc(-c3cccs3)ccc2n1` (stereo not drawn) [Compound 235]: the IC50 was > 40 µM.
